How the values were obtained:
Canola [1] = assay: Pot experiment: availability of Zn fertiliser to Canola grown on alkaline and calcareous soils; assay type: in vivo, Canola (variety Pinnacle); settings: calcareous grey sandy loam (Streaky Bay) and Sodosol (Birchip); 21 days; FIG. 2; LSD=1.72; p<0.01
Text: Topsoils from each location were collected, oven dried and passed through a 2 mm sieve. The experimental fertilisers were mixed with 20g of soil, which was banded between 100 g of the unfertilised bulk soil. Total nutrient application equated to (μg/g soil) P 60, N 27, applied as TGMAP, and Zn 0.2 as ZnSO4.7H2O. Chelate rates were based on the concentrations required to complex between 75 and 100% of the Zn in the fertiliser solution. Rates varied depending on the equilibrium constant (logK) and the stoichiometry of the Zn-ligand complexes. […] Each treatment was replicated four times.
Two pre-germinated Canola seeds (variety Pinnacle) were transferred to each pot. The pots were watered to θg=0.5 with deionised water every second day and evaporation was reduced with polyethylene beads, which were spread over the exposed surface of each pot. The plants were grown for 21 days in a controlled environment growth chamber (10 h dark at 15° C., 14 h light at 20° C., 41% humidity) before the shoots were harvested, rinsed, dried, weighed and then digested in concentrated HNO3. Plant digests were analysed for ^65Zn by gamma spectroscopy and for total nutrient contents by ICP-OES.
Data for shoot dry weight, shoot nutrient concentrations and Zn fertiliser uptake were analysed by analysis of variance (ANOVA). Significance between means was determined using the Least Significant Difference (LSD) test.

[2] = published value; cited from earlier work
[3] = n-Octanol/water partition coefficients (Kow) of metal-ligand complexes, shake-flask method; assay type: physicochemical
Text: n-Octanol/water partition coefficients (Kow) are commonly used to determine whether molecules can partition into hydrophobic (lipid-soluble) phases. Polar molecules, ie metals, generally partition in the water phase. Neutral, lipid soluble organic molecules may partition within the octanol phase according to their Kow. Most conventional chelate complexes (ie ZnEDTA^2−) partition within the water phase. […] The aim of this experiment was to determine whether Zn-Rhamnolipid complexes would partition within the n-octanol phase. Kow's were measured with varying Rhamnolipid concentrations. […] Final Rhamnolipid concentrations were (mM) 0, 0.1, 0.24, 0.5, 1, 1.5, 2, 2.5. Two millilitres of n-Octanol was added to the solutions before they were shaken end-over-end for 24 hours. Following shaking, 3 ml of solution was removed from the water phase and digested in concentrated HNO3 before analysis for total Zn by ICP-OES. The partition coefficient was calculated according to the equation above.

Canola [4] = assay: Canola dry matter response to foliar applied Zn (shoot immersion); assay type: in vivo, Canola (var. Pinnacle); settings: Zn deficient Canola, shoots immersed five seconds; compared with ZnSO4 or ZnEDTA; FIG. 3; P<0.05, LSD=0.1496
Text: Dry matter response in Zn deficient Canola was used as a measure of fertiliser effectiveness because it considers metabolically available Zn, rather than total Zn uptake. Pre-germinated Canola seedlings (var. […] After 13 days, whole shoots were immersed in ZnSO4.7H2O solutions for five seconds. […] Rhamnolipid rates were high enough to ensure a Zn Kow of at least 50 at the highest Zn application rate. […] Wetting agent was not required in the Rhamnolipid solutions because of the surfactant properties of the ligand. […] After the three-week growth period, plant roots and shoots were harvested, dried and weighed for dry matter production.

O=C(O)CN(CCN(CC(=O)O)CC(=O)O)CC(=O)O [EDTA, reference compound]
total Zn uptake by canola (roots absorbed and translocated into shoots) (Canola [1]): ineffective

O=C([O-])CN(CCN(CC(=O)O)CC(=O)O)CC(=O)[O-].[Zn+2] [ZnEDTA]
logK of Zn complex [2]: 16.5

rhamnolipid
partitioning of metal-ligand complex into the n-octanol phase (Kow) ([3]; Zn, Mn, Cu, shake-flask, 24 hours, FIG. 1): dramatically facilitates the transfer of the metal ion from the aqueous phase into the octanol phase
Zn Kow ([3]; at the Rhamnolipid rates used for foliar test, at the highest Zn application rate): at least 50
total Zn uptake by canola (roots absorbed and translocated into shoots) (Canola [1]): significantly increased total Zn uptake
plant foliar dry matter response to applied Zn (Canola [4]): significantly increased dry matter response to Zn

— US8217004B2, “Sequestering agent for micronutrient fertilisers” (priority 2005, dated 2012)
